Laboratory results taken from ChEMBL document CHEMBL1201862, “PubChem BioAssay data set” (2004).
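A five-concentration, 48-hour dose response in 96-well plates underlies each endpoint, interpolated linearly between surrounding concentrations. GI50 marks 50% less growth.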 Calls of active or inactive are those of the source. Rule as the data show it: active = GI50 up to about 1.1 µM and inactive = higher.

What was measured:
Experiment in all cases: DTP human tumour cell line panel, 48 h
RXF 393 = system: RXF 393
SN12C = system: SN12C
EKVX = system: EKVX
CCRF-CEM = system: CCRF-CEM
NCI-H460 = system: NCI-H460
NCI-H522 = system: NCI-H522
K562 = system: K562
SF-539 = system: SF-539
A549 = system: A549
HCC 2998 = system: HCC 2998
RPMI-8226 = system: RPMI-8226
OVCAR-5 = system: OVCAR-5
SF-295 = system: SF-295
SNB-75 = system: SNB-75
786-0 = system: 786-0
T47D = system: T47D
IGROV-1 = system: IGROV-1
PC-3 = system: PC-3
HL-60 = system: HL-60
OVCAR-3 = system: OVCAR-3
SK-OV-3 = system: SK-OV-3
SNB-19 = system: SNB-19
OVCAR-8 = system: OVCAR-8
SR = system: SR
MOLT-4 = system: MOLT-4
HCT-15 = system: HCT-15
SK-MEL-2 = system: SK-MEL-2
TK-10 = system: TK-10
UACC-257 = system: UACC-257
COLO 205 = system: COLO 205
UACC-62 = system: UACC-62
U-251 = system: U-251
Malme-3M = system: Malme-3M
BT-549 = system: BT-549
OVCAR-4 = system: OVCAR-4
MCF7 = system: MCF7
ACHN = system: ACHN
SW-620 = system: SW-620
UO-31 = system: UO-31
MDA-MB-435 = system: MDA-MB-435
SK-MEL-28 = system: SK-MEL-28
HT-29 = system: HT-29
KM12 = system: KM12
HOP-92 = system: HOP-92
HCT-116 = system: HCT-116
DU-145 = system: DU-145
MDA-MB-231 = system: MDA-MB-231
MDA-N = system: MDA-N
SK-MEL-5 = system: SK-MEL-5
LOX IMVI = system: LOX IMVI
M14 = system: M14
NCI-H226 = system: NCI-H226
HOP-62 = system: HOP-62
NCI-H23 = system: NCI-H23
CAKI-1 = system: CAKI-1
NCI/ADR-RES = system: NCI/ADR-RES
Hs-578T = system: Hs-578T
SF-268 = system: SF-268
A498 = system: A498

SMILES: CNC(=O)N(CCC#N)CCCN(C(=O)NC)c1ccccc1
- GI50 (RXF 393): > 100 µM (inactive)
- GI50 (SN12C): > 100 µM (inactive)
- GI50 (EKVX): > 100 µM (inactive)
- GI50 (CCRF-CEM): > 100 µM (inactive)
- GI50 (NCI-H460): > 100 µM (inactive)
- GI50 (NCI-H522): > 100 µM (inactive)
- GI50 (K562): > 100 µM (inactive)
- GI50 (SF-539): > 100 µM (inactive)
- GI50 (A549): > 100 µM (inactive)
- GI50 (HCC 2998): > 100 µM (inactive)
- GI50 (RPMI-8226): > 100 µM (inactive)
- GI50 (OVCAR-5): > 100 µM (inactive)
- GI50 (SF-295): > 100 µM (inactive)
- GI50 (SNB-75): 72.6 µM (inactive)
- GI50 (786-0): > 100 µM (inactive)
- GI50 (T47D): > 100 µM (inactive)
- GI50 (IGROV-1): > 100 µM (inactive)
- GI50 (PC-3): > 100 µM (inactive)
- GI50 (HL-60): > 100 µM (inactive)
- GI50 (OVCAR-3): > 100 µM (inactive)
- GI50 (SK-OV-3): > 100 µM (inactive)
- GI50 (SNB-19): > 100 µM (inactive)
- GI50 (OVCAR-8): > 100 µM (inactive)
- GI50 (SR): > 100 µM (inactive)
- GI50 (MOLT-4): > 100 µM (inactive)
- GI50 (HCT-15): > 100 µM
- GI50 (SK-MEL-2): > 100 µM (inactive)
- GI50 (TK-10): > 100 µM (inactive)
- GI50 (UACC-257): > 100 µM (inactive)
- GI50 (COLO 205): > 100 µM (inactive)
- GI50 (UACC-62): > 100 µM (inactive)
- GI50 (U-251): > 100 µM (inactive)
- GI50 (Malme-3M): 51.4 µM (inactive)
- GI50 (BT-549): > 100 µM (inactive)
- GI50 (OVCAR-4): > 100 µM (inactive)
- GI50 (MCF7): > 100 µM (inactive)
- GI50 (ACHN): > 100 µM (inactive)
- GI50 (SW-620): > 100 µM (inactive)
- GI50 (UO-31): > 100 µM (inactive)
- GI50 (MDA-MB-435): > 100 µM (inactive)
- GI50 (SK-MEL-28): > 100 µM (inactive)
- GI50 (HT-29): > 100 µM (inactive)
- GI50 (KM12): > 100 µM (inactive)
- GI50 (HOP-92): > 100 µM (inactive)
- GI50 (HCT-116): > 100 µM (inactive)
- GI50 (DU-145): > 100 µM (inactive)
- GI50 (MDA-MB-231): > 100 µM (inactive)
- GI50 (MDA-N): > 100 µM (inactive)
- GI50 (SK-MEL-5): > 100 µM (inactive)
- GI50 (LOX IMVI): > 100 µM (inactive)
- GI50 (M14): > 100 µM (inactive)
- GI50 (NCI-H226): > 100 µM (inactive)
- GI50 (HOP-62): > 100 µM (inactive)
- GI50 (NCI-H23): > 100 µM (inactive)
- GI50 (CAKI-1): > 100 µM (inactive)
- GI50 (NCI/ADR-RES): > 100 µM (inactive)

SMILES: C/C(=N\N=C(/S)N1CC2CCC(CC2)C1)c1ccncn1
- GI50 (RXF 393): 0.794 µM (active)
- GI50 (SN12C): 0.0152 µM (active)
- GI50 (EKVX): < 0.01 µM (active)
- GI50 (CCRF-CEM): < 0.01 µM (active)
- GI50 (NCI-H460): < 0.01 µM (active)
- GI50 (K562): < 0.01 µM (active)
- GI50 (SF-539): < 0.01 µM (active)
- GI50 (A549): < 0.01 µM (active)
- GI50 (RPMI-8226): < 0.01 µM (active)
- GI50 (OVCAR-5): 0.213 µM (active)
- GI50 (SF-295): < 0.0179 µM (active)
- GI50 (SNB-75): 0.221 µM (active)
- GI50 (786-0): 0.0103 µM (active)
- GI50 (T47D): < 0.01 µM (active)
- GI50 (IGROV-1): < 0.01 µM (active)
- GI50 (PC-3): < 0.01 µM (active)
- GI50 (HL-60): < 0.01 µM (active)
- GI50 (OVCAR-3): < 0.01 µM (active)
- GI50 (SK-OV-3): < 0.01 µM (active)
- GI50 (SNB-19): 0.198 µM (active)
- GI50 (OVCAR-8): < 0.01 µM (active)
- GI50 (SR): < 0.01 µM (active)
- GI50 (MOLT-4): < 0.01 µM (active)
- GI50 (Hs-578T): 0.914 µM (active)
- GI50 (SF-268): 0.133 µM (active)
- GI50 (HCT-15): < 0.01 µM
- GI50 (SK-MEL-2): 1.19 µM (inactive)
- GI50 (TK-10): < 0.01 µM (active)
- GI50 (A498): 0.291 µM (active)
- GI50 (UACC-257): < 0.01 µM (active)
- GI50 (COLO 205): < 0.01 µM (active)
- GI50 (UACC-62): < 0.01 µM (active)
- GI50 (U-251): < 0.01 µM (active)
- GI50 (Malme-3M): < 0.01 µM (active)
- GI50 (BT-549): 0.0512 µM (active)
- GI50 (OVCAR-4): 0.741 µM (active)
- GI50 (MCF7): < 0.01 µM (active)
- GI50 (ACHN): < 0.01 µM (active)
- GI50 (SW-620): < 0.01 µM (active)
- GI50 (UO-31): < 0.01 µM (active)
- GI50 (MDA-MB-435): 0.0703 µM (active)
- GI50 (SK-MEL-28): 0.863 µM (active)
- GI50 (HT-29): < 0.01 µM (active)
- GI50 (KM12): < 0.01 µM (active)
- GI50 (HCT-116): < 0.01 µM (active)
- GI50 (DU-145): 0.309 µM (active)
- GI50 (MDA-N): 0.189 µM (active)
- GI50 (SK-MEL-5): < 0.01 µM (active)
- GI50 (LOX IMVI): < 0.01 µM (active)
- GI50 (M14): < 0.01 µM (active)
- GI50 (NCI-H226): < 0.01 µM (active)
- GI50 (HOP-62): 0.108 µM (active)
- GI50 (NCI-H23): < 0.01 µM (active)
- GI50 (CAKI-1): < 0.01 µM (active)
- GI50 (NCI/ADR-RES): < 0.01 µM (active)
